Numbering of substitutions follows the chain as printed.
Experiments:
S359A mutant AhR [1] = target: T1, S359A mutant AhR (Mus musculus, UniProt P30561, S359A); assay: [3H]TCDD competitive ligand binding, S359A mutant AhR; conditions: for IC50: Table S6, AhR mutant S359A
T1 construct: made in house; host or cells: in vitro, Promega TNT Quick rabbit reticulocyte lysate
T1 sequence (P30561 10-848 S359A): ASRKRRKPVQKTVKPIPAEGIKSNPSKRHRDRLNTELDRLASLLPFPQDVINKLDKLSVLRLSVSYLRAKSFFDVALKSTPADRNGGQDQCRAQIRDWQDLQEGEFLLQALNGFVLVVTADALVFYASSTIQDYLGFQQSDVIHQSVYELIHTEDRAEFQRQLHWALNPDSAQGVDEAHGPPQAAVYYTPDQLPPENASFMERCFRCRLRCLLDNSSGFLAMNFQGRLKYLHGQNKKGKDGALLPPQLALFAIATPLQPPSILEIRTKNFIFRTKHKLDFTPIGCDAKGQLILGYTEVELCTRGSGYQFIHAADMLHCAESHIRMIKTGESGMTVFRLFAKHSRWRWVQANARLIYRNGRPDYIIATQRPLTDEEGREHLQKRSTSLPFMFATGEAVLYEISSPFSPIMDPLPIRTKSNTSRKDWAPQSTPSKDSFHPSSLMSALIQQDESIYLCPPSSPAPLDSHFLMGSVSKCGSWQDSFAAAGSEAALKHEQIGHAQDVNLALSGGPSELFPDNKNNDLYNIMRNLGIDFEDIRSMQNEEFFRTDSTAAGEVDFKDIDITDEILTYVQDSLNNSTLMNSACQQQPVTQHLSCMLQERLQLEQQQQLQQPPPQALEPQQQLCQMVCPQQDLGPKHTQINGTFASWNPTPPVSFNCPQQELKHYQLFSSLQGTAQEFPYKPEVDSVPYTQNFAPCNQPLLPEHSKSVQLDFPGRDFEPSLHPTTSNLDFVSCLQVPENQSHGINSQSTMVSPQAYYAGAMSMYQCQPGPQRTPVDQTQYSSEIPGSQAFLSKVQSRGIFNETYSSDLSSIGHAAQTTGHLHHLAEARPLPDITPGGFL
Experimental: The mouse AhR (mAhR) and ARNT (mARNT) expression plasmids, mβAhR/pcDNA3 and mβArnt/pcDNA3, have been previously described. Point mutations of mβAhR/pcDNA3 were carried out using the QuikChange Lightning Mutagenesis Kit (Agilent Technologies) and all constructs were verified by sequencing.
[^3H]TCDD specific binding to wild-type or mutant mAhRs synthesized in vitro using the Promega TNT Quick coupled transcription/translation rabbit reticulocyte lysate kit (Madison, WI) was carried out as previously described. [^3H]TCDD specific binding was determined by subtracting the amount of [^3H]TCDD bound to unprogrammed lysate (nonspecific binding) from the total amount of [^3H]TCDD binding to lysate containing in vitro expressed AhR. The amount of [^3H]TCDD specific binding remaining in the presence of the indicated competitor chemical was expressed as a percent of the total [^3H]TCDD specific binding. The relative binding affinity (IC50) of each chemical was determined from concentration-dependent competitive inhibition curves obtained using [^3H]TCDD and increasing concentrations of each test chemical and the mean IC50 value was determined using three-parameter non-linear regression.

S359A mutant AhR [2] = target: T1, S359A mutant AhR; design: method as in PMID 21981577; conditions: S359A mutation; cited from earlier work
L302A mutant AhR = target: T2, L302A mutant AhR (Mus musculus, UniProt P30561, L302A); design: method as in PMID 21981577; conditions: L302A mutation; cited from earlier work
T2 construct: made in house; host or cells: in vitro transcription/translation (rabbit reticulocyte lysate)
T2 sequence (P30561 10-848 L302A): T1 sequence (P30561 10-848 S359A) with L293A, A350S

SMILES | IC50 (S359A mutant AhR [1]) | change of relative binding affinity versus wild-type AhR (S359A mutant AhR [1]; S359A substitution, in words) | TCDD binding activity (S359A mutant AhR [2]) | TCDD binding activity (L302A mutant AhR)
O=c1cc(-c2ccccc2)oc2ccc3ccccc3c12 [BNF] | 47.1 nM |  |  | 
O=Cc1c2[nH]c3ccccc3c2cc2[nH]c3ccccc3c12 [FICZ, 6-formylindolo[3,2-b]carbazole] | 4.1 nM | decreased binding |  | 
Clc1cc2c(cc1Cl)Oc1cc(Cl)c(Cl)cc1O2 [TCDD, 2,3,7,8-tetrachlorodibenzo-p-dioxin] |  |  | only partially affected | dramatically reduced

Source: publication PMC6650409, “Modeling the binding of diverse ligands within the Ah receptor ligand binding domain” (Scientific Reports, 2019)
